Laboratory results: patent publication US20110294876A1, “CYCLOHEXYL CARBAMATE COMPOUNDS AS ANTI-AGEING ACTIVES” (SYMRISE AG, priority 2010, published 2011)

Experiments:
isolated 20S proteasome = isolated 20S proteasome (Homo sapiens, UniProt P28074); experiment: Proteasome activity using isolated proteasome (chymotrypsin-like activity, MCA liberation); assay type: biochemical; set-up: unit of the concentration uncertain; details: relative to DMSO control (0 (unit uncertain) = 100%), mean of 3 independent tests
From the text: The method used herein to investigate the proteasome stimulating activity of a substance is based on the measurement of the 20S proteasome core activity. To detect this activity, the isolated 20S proteasome reacts with an oligopeptide, which is bound to a fluorochrome. With its chymotrypsin-like proteolytic activity, the proteasome degrades the oligopeptide and liberates the fluorochrome. For this assay 4-methyl-coumaryl-amide (MCA) was used as fluorochrome. Liberation of MCA correlates linearly with the proteasome activity. MCA was detected using an excitation of 360 nm and an emission of 460 nm.
For interpretation, the measured proteasome activities/intensities of fluorescence were compared with pure MCA standards at distinct concentrations.
Two different controls were used for each assay. One “ordinary” control (C) which consisted of isolated proteasome alone, and a DMSO-control (DC). DC was necessary because all substances were diluted in DMSO. Proteasome activity was calculated relative to DMSO control (0 mM).

[1] = tested on: proteasome in HaCaT cell lysate; experiment: Proteasome activity using cell lysates of HaCaT cells (MCA liberation); assay type: biochemical, human; set-up: unit of the concentration uncertain; details: HaCaT cellular extracts, relative to DMSO control (0 (unit uncertain) = 100%), mean of 3 independent tests
Experimental: To determine proteasome activity in cell lysate, human keratinocyte cell lines (HaCaT cells) were seeded out in Petri-dishes (area: 22.1 cm^2) and harvested when they reached confluence. Isolation of the pure cell lysate included cell washing, incubation and homogenization in lysis buffer (250 mM sucrose, 25 mM HEPES (4-(2-hydroxyethyl)-1-piperazineethanesulfonic acid), 10 mM MgCl2*6H2O, 1.3 mM EDTA) and final cell lysis with liquid nitrogen. Determination of proteasome activity is based on the liberation of MCA and the corresponding fluorescence like described above in example 3.1. Proteasome activity was calculated relative to DMSO control (0 mM).

yeast = details: cited from earlier work
fish = details: cited from earlier work

Relative proteasome activity (isolated 20S proteasome; 5 (unit uncertain)) [%] | Relative proteasome activity (isolated 20S proteasome; 10 (unit uncertain)) [%] | Relative proteasome activity (isolated 20S proteasome; 20 (unit uncertain)) [%] | Structure (SMILES) | Relative proteasome activity ([1]; 5 (unit uncertain)) [%] | Relative proteasome activity ([1]; 10 (unit uncertain)) [%] | Relative proteasome activity ([1]; 20 (unit uncertain)) [%] | Extension of lifespan (yeast) [%] | Extension of lifespan (fish) [%]
125 | 210 | 250 | CC(C)NC(=O)O[C@@H]1C[C@H](C)CC[C@H]1C(C)C [BIO1272, Isopropyl-carbamic acid (1R,2S,5R)-2-isopropyl-5-methylcyclohexyl ester] | 105 | 120 | 140 | – | –
– | – | – | Oc1ccc(C=Cc2cc(O)cc(O)c2)cc1 [Resveratrol] | – | – | – | 70 | 60
